Experimental findings from ChEMBL document CHEMBL5678807, “A selective jumonji H3K27 demethylase inhibitor modulates the proinflammatory macrophage response” (Nature, 2012) are described below.

In data set [1] the test system is Macrophage. The data set is described as follows: Antiinflammatory activity in human primary macrophages assessed as effect on LPS-induced IL16 gene expression at 30 uM measured after 2 hrs by RT-PCR array (reference value: 8635 a.u.). In kind it is functional.
Data set [2] deals with Macrophage. The data set is described as follows: Antiinflammatory activity in human primary macrophages assessed as effect on LPS-induced INHBA gene expression at 30 uM measured after 2 hrs by RT-PCR array (reference value: 785853 a.u.). In kind it is functional.
In data set [3] the test system is Macrophage. The data set is described as follows: Antiinflammatory activity in human primary macrophages assessed as effect on LPS-induced GAPDH gene expression at 30 uM measured after 2 hrs by RT-PCR array (reference value: 1352294 a.u.). In kind it is functional.
Data set [4] relates to Macrophage. The data set is described as follows: Antiinflammatory activity in human primary macrophages assessed as effect on LPS-induced CD70 gene expression at 30 uM measured after 2 hrs by RT-PCR array (reference value: 2415 a.u.). In kind it is functional.
Data set [5] deals with Macrophage. The data set is described as follows: Antiinflammatory activity in human primary macrophages assessed as effect on LPS-induced IFNA8 gene expression at 30 uM measured after 2 hrs by RT-PCR array (reference value: 425 a.u.). Type of data set: functional.
In data set [6] the test system is Macrophage. The data set is described as follows: Antiinflammatory activity in human primary macrophages assessed as effect on LPS-induced FASLG gene expression at 30 uM measured after 2 hrs by RT-PCR array (reference value: 73 a.u.). In kind it is functional.
Data set [7] deals with Macrophage. In words: Antiinflammatory activity in human primary macrophages assessed as effect on LPS-induced IFNB1 gene expression at 30 uM measured after 2 hrs by RT-PCR array (reference value: 1415030 a.u.). In kind it is functional.
For data set [8], the system named is Macrophage. The data set is described as follows: Antiinflammatory activity in human primary macrophages assessed as effect on LPS-induced IL1F10 gene expression at 30 uM measured after 2 hrs by RT-PCR array (reference value: 125 a.u.). In kind it is functional.
Data set [9] relates to Macrophage. The data set is described as follows: Antiinflammatory activity in human primary macrophages assessed as effect on LPS-induced PDGFA gene expression at 30 uM measured after 2 hrs by RT-PCR array (reference value: 235 a.u.). In kind it is functional.
Data set [10] deals with Macrophage. In words: Antiinflammatory activity in human primary macrophages assessed as effect on LPS-induced IL24 gene expression at 30 uM measured after 2 hrs by RT-PCR array (reference value: 12164 a.u.). Type of data set: functional.
The test system of data set [11] is Macrophage. In words: Antiinflammatory activity in human primary macrophages assessed as effect on LPS-induced TNFSF13B gene expression at 30 uM measured after 2 hrs by RT-PCR array (reference value: 28045 a.u.). Type of data set: functional.
For data set [12], the system named is Macrophage. The data set is described as follows: Antiinflammatory activity in human primary macrophages assessed as effect on LPS-induced CSF2 gene expression at 30 uM measured after 2 hrs by RT-PCR array (reference value: 248134 a.u.). Type of data set: functional.
The subject of data set [13] is Macrophage. In words: Antiinflammatory activity in human primary macrophages assessed as effect on LPS-induced IL15 gene expression at 30 uM measured after 2 hrs by RT-PCR array (reference value: 62425 a.u.). In kind it is functional.
In data set [14] the test system is Macrophage. In words: Antiinflammatory activity in human primary macrophages assessed as effect on LPS-induced GDF9 gene expression at 30 uM measured after 2 hrs by RT-PCR array (reference value: 113 a.u.). Type of data set: functional.
Data set [15] concerns Macrophage. The data set is described as follows: Antiinflammatory activity in human primary macrophages assessed as effect on LPS-induced TNFSF13 gene expression at 30 uM measured after 2 hrs by RT-PCR array (reference value: 47108 a.u.). In kind it is functional.
In data set [16] the test system is Macrophage. The data set is described as follows: Antiinflammatory activity in human primary macrophages assessed as effect on LPS-induced FAM3B gene expression at 30 uM measured after 2 hrs by RT-PCR array (reference value: 996 a.u.). Type of data set: functional.
Data set [17] has as its system Macrophage. The data set is described as follows: Antiinflammatory activity in human primary macrophages assessed as effect on LPS-induced IL6 gene expression at 30 uM measured after 2 hrs by RT-PCR array (reference value: 3511720 a.u.). In kind it is functional.
Data set [18] deals with Macrophage. In words: Antiinflammatory activity in human primary macrophages assessed as effect on LPS-induced IL1A gene expression at 30 uM measured after 2 hrs by RT-PCR array (reference value: 1292761 a.u.). In kind it is functional.
Data set [19] concerns Macrophage. The data set is described as follows: Antiinflammatory activity in human primary macrophages assessed as effect on LPS-induced TNFSF11 gene expression at 30 uM measured after 2 hrs by RT-PCR array (reference value: 32 a.u.). Type of data set: functional.
Data set [20] has as its system Macrophage. The data set is described as follows: Antiinflammatory activity in human primary macrophages assessed as effect on LPS-induced IL12A gene expression at 30 uM measured after 2 hrs by RT-PCR array (reference value: 7097 a.u.). Type of data set: functional.
The test system of data set [21] is Macrophage. The data set is described as follows: Antiinflammatory activity in human primary macrophages assessed as effect on LPS-induced IL17C gene expression at 30 uM measured after 2 hrs by RT-PCR array (reference value: 157 a.u.). In kind it is functional.
The subject of data set [22] is Macrophage. The data set is described as follows: Antiinflammatory activity in human primary macrophages assessed as effect on LPS-induced TNFRSF11B gene expression at 30 uM measured after 2 hrs by RT-PCR array (reference value: 1609 a.u.). Type of data set: functional.
A further data set addresses Substance-P receptor (Homo sapiens, UniProt P25103). In words: Antagonist activity at human NK-1 by intracellular Ca luminescence assay. In kind it is functional, cell-based.
In data set [23] the target is Beta-2 adrenergic receptor (Homo sapiens, UniProt P07550). The data set is described as follows: Agonist activity at human beta2 adrenoceptor by TR-FRET assay. In kind it is functional.
Data set [24] addresses 5-hydroxytryptamine receptor 2A (Homo sapiens, UniProt P28223). In words: Agonist activity at human 5-HT2A by intracellular Ca luminescence assay. Type of data set: functional, cell-based.
Another data set deals with Histone deacetylase 3 (Homo sapiens, UniProt O15379). In words: Inhibition of human HDAC3 by FLINT assay.
The next data set concerns the target Prolyl hydroxylase EGLN3 (Homo sapiens, UniProt Q9H6Z9). The data set is described as follows: Inhibition of human EGLN3 by TR-FRET assay.
Data set [25] concerns the target T1, D(2) dopamine receptor (Homo sapiens, UniProt P14416). The data set is described as follows: Agonist activity at human dopamine 2 by SPA. Type of data set: functional.
Data set [26] addresses Sodium-dependent noradrenaline transporter (Homo sapiens, UniProt P23975). The data set is described as follows: Binding affinity to human NET by SPA.
In data set [27] the target is Protein deacetylase HDAC6 (Homo sapiens, UniProt Q9UBN7). In words: Inhibition of human HDAC6 by FLINT assay.
A short description of data set [28]: Antagonist activity at human NR1A/NR2B by intracellular Ca fluorescence assay. Type of data set: cell-based.
The next data set addresses Mu-type opioid receptor (Homo sapiens, UniProt P35372). The data set is described as follows: Antagonist activity at human OPRM-1 by SPA. In kind it is functional.
Data set [29] deals with T1, D(2) dopamine receptor. In words: Antagonist activity at human dopamine 2 receptor by SPA. In kind it is functional.
In a further data set the target is hERG (KCNH2) (Homo sapiens, UniProt Q12809). In words: Binding affinity to human ERG by FP binding assay. In kind it is toxicity.
Data set [30] concerns the target Alpha-2C adrenergic receptor (Homo sapiens, UniProt P18825). In words: Agonist activity at human alpha 2C adrenoceptor by TR-FRET assay.
Data set [31] deals with Prostaglandin G/H synthase 2 (Homo sapiens, UniProt P35354). In words: Inhibition of human COX-2 by FLINT assay.
The next data set deals with D(1A) dopamine receptor (Homo sapiens, UniProt P21728). The data set is described as follows: Antagonist activity at human dopamine 1 receptor by TR-FRET assay. Type of data set: functional.
The next data set addresses Histone deacetylase 2 (Homo sapiens, UniProt Q92769). In words: Inhibition of human HDAC2 by FLINT assay.

Molecules are shown by their SMILES.

T1 sequence (P14416 whole entry): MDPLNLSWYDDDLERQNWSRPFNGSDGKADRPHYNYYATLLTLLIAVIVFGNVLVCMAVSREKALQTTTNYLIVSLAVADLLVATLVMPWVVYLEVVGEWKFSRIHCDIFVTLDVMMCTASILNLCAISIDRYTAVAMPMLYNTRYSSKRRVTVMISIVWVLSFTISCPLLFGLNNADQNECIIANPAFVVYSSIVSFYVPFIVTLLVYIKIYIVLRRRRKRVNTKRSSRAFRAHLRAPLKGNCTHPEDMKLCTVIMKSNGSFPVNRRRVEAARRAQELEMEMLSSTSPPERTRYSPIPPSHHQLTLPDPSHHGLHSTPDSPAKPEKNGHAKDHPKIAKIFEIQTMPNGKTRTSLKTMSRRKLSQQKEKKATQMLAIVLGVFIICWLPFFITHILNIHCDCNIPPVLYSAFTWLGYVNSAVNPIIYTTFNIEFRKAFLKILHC
Chain of Alpha-2C adrenergic receptor (P18825 whole entry): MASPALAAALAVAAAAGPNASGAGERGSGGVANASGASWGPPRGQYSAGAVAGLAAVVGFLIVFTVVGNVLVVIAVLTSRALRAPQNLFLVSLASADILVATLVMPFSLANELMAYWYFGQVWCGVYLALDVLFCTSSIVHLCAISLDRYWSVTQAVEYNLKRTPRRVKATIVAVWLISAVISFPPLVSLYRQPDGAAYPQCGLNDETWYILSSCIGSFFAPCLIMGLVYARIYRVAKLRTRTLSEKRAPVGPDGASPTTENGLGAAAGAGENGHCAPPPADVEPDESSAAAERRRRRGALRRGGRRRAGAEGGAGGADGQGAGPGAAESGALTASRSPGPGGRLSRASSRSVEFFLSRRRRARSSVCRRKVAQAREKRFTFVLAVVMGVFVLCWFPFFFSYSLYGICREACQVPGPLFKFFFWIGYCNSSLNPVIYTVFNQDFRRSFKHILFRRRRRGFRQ
Chain of Substance-P receptor (P25103 whole entry): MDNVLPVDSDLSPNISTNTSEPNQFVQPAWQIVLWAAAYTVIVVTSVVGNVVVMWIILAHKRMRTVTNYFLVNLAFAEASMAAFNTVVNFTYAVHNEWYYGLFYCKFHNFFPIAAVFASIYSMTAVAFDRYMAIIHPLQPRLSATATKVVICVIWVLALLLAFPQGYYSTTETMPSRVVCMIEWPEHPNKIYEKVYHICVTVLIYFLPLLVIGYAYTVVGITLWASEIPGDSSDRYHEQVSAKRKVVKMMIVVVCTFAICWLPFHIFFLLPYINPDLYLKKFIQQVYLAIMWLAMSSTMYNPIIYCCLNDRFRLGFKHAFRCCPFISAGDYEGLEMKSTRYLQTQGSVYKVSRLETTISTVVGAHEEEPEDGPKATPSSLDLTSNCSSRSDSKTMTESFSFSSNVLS
Chain of Prostaglandin G/H synthase 2 (P35354 whole entry): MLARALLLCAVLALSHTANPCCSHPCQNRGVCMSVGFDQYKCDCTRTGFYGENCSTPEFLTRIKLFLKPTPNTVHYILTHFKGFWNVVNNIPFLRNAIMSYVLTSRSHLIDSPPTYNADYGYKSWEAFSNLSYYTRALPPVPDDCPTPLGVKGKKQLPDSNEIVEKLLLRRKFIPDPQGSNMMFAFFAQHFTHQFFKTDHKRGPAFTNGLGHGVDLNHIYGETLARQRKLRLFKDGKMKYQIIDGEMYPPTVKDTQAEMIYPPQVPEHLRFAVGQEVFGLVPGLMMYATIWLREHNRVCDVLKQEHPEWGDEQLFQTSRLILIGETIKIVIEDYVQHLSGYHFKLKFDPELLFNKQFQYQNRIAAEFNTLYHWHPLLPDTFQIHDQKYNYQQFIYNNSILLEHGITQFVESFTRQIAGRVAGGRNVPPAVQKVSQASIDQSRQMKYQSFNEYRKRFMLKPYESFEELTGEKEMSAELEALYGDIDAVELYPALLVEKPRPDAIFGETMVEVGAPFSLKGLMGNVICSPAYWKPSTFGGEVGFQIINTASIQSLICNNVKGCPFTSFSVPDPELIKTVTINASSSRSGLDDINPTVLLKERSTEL
Chain of hERG (KCNH2) (Q12809 whole entry): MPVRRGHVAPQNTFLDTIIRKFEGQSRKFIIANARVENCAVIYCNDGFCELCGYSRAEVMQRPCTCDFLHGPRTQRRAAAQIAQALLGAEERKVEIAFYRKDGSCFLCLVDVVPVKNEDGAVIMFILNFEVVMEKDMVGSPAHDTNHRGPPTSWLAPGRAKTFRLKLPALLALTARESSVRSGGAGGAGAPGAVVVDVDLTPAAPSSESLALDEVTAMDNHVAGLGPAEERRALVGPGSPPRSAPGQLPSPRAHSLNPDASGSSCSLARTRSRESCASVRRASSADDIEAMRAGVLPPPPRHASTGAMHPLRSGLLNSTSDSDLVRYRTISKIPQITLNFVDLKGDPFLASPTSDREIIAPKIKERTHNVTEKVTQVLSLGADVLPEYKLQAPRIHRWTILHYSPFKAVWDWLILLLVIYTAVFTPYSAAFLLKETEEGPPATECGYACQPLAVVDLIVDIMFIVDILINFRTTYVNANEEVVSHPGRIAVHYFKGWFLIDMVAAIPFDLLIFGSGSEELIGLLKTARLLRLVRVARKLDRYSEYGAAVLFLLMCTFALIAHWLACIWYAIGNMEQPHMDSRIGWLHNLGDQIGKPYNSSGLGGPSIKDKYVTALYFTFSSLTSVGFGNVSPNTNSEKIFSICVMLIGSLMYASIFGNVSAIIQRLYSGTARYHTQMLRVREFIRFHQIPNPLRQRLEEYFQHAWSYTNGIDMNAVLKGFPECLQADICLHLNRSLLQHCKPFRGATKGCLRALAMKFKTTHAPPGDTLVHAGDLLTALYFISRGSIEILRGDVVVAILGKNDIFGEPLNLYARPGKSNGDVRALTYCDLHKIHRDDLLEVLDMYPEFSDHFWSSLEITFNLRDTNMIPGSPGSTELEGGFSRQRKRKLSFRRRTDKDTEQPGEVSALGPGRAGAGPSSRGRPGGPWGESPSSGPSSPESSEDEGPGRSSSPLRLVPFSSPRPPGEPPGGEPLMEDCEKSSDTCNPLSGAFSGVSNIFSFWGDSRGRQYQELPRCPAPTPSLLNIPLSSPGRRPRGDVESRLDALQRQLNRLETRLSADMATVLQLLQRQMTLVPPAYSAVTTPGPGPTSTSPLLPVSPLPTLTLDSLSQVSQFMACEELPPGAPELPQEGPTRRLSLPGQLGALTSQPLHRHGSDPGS
Chain of Sodium-dependent noradrenaline transporter (P23975 whole entry): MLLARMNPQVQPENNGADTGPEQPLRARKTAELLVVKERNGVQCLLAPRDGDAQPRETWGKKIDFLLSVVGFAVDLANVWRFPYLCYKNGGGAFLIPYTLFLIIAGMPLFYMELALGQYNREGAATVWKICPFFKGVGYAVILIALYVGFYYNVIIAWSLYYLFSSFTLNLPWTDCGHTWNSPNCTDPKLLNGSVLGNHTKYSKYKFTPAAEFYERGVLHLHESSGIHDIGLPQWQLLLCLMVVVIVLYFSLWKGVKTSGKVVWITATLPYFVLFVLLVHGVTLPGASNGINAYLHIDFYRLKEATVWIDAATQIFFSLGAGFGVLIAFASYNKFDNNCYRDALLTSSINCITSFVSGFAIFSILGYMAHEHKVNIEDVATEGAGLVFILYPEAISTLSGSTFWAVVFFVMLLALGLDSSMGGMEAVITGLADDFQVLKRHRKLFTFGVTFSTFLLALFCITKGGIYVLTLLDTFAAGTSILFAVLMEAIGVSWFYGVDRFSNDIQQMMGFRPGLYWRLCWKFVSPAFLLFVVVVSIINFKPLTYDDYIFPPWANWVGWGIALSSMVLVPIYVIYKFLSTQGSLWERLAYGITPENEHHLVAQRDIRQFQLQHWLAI
Chain of 5-hydroxytryptamine receptor 2A (P28223 whole entry): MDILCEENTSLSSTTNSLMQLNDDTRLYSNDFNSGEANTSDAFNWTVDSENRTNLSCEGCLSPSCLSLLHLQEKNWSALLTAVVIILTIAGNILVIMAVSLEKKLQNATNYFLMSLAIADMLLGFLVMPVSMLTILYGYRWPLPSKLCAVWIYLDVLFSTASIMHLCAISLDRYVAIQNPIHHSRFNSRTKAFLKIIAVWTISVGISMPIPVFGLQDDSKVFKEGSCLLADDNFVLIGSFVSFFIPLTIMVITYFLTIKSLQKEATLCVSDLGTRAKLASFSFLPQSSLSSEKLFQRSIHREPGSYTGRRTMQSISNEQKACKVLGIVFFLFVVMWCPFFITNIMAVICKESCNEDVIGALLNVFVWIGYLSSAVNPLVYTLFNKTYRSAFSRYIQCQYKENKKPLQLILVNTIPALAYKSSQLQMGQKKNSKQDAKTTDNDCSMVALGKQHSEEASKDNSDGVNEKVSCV
Chain of Beta-2 adrenergic receptor (P07550 whole entry): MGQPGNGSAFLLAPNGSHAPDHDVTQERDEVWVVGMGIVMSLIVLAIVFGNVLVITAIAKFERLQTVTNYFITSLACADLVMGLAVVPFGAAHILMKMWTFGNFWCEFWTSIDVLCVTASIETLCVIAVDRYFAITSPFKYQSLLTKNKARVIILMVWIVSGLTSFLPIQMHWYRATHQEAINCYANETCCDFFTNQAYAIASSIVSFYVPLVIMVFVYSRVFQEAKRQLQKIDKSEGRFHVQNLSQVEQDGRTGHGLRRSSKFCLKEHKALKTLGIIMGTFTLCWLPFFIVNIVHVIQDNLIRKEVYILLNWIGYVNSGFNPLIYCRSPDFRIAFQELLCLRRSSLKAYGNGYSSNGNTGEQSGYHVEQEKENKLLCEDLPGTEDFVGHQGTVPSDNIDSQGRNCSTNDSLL
Chain of Histone deacetylase 3 (O15379 whole entry): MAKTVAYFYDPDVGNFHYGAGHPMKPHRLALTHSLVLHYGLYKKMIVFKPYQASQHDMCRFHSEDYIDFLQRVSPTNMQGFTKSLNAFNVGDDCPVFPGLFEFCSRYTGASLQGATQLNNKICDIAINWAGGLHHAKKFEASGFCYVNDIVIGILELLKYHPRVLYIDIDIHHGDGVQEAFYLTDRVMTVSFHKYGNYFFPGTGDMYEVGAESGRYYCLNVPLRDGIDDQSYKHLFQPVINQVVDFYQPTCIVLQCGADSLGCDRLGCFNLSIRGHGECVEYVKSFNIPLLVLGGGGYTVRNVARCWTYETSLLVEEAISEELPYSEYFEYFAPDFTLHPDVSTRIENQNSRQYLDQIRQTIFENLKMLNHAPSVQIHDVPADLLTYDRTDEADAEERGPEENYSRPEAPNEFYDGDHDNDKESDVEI

On to `CCOC(=O)CCNc1cc(N2CCc3ccccc3CC2)nc(-c2ccccn2)n1`, for which the Activity came to 6284 a.u in the data set on Macrophage [1]; 157533 a.u in the data set with Macrophage [2]; 1352294 a.u in the data set on Macrophage [3]; 334 a.u with Macrophage [4]; 1012 a.u with Macrophage [5]; 19 a.u in the data set on Macrophage [6]. The Activity worked out at 153760 a.u in the data set with Macrophage [7]; 11 a.u in the data set with Macrophage [8]; 392 a.u in the data set with Macrophage [9]; 11754 a.u in the data set with Macrophage [10]; 18715 a.u in the data set with Macrophage [11]; 10602 a.u in the data set with Macrophage [12]. Moreover, the Activity in the data set on Macrophage [13] is on record as 4562 a.u; in the data set on Macrophage [14], 15 a.u; in the data set on Macrophage [15], 43866 a.u; with Macrophage [16] it was 9 a.u; in the data set on Macrophage [17], 242914 a.u; in the data set with Macrophage [18], 170309 a.u. Further, the Activity in the data set with Macrophage [19] amounted to 255 a.u; with Macrophage [20] it was 304 a.u; with Macrophage [21], 107 a.u; with Macrophage [22], 267 a.u.
As to `O=C(O)CCNc1cc(N2CCc3ccccc3CC2)nc(-c2ccccn2)n1`, the XC50 on Substance-P receptor is greater than 40 µM; in data set [23], greater than 32 µM; in [24] it was greater than 40 µM; at Histone deacetylase 3, greater than 300 µM; at Prolyl hydroxylase EGLN3, greater than 50 µM; on D(2) dopamine receptor [25] it was greater than 100 µM. For the same compound, the XC50 was greater than 100 µM in data set [26]; greater than 300 µM in [27]; greater than 50 µM in [28]; 50 µM at Mu-type opioid receptor; greater than 100 µM at D(2) dopamine receptor [29]; 32 µM at hERG (KCNH2). Moreover, the XC50 in data set [30] was greater than 32 µM; in data set [31] it was greater than 63 µM; on D(1A) dopamine receptor, greater than 32 µM; on Histone deacetylase 2, greater than 300 µM.
Take `O=C(O)CCNc1cc(N2CCc3ccccc3CC2)nc(-c2cccnc2)n1`: the XC50 was greater than 40 µM on Substance-P receptor; greater than 32 µM in data set [23]; greater than 40 µM in data set [24]; greater than 300 µM at Histone deacetylase 3; greater than 50 µM at Prolyl hydroxylase EGLN3; greater than 100 µM at D(2) dopamine receptor [25]. The XC50 in [26] was greater than 100 µM; in data set [27], greater than 300 µM; in data set [28] it was greater than 50 µM; on Mu-type opioid receptor, 63 µM; on D(2) dopamine receptor [29], greater than 100 µM; at hERG (KCNH2), greater than 100 µM. The XC50 in [30] was greater than 32 µM; in data set [31], greater than 63 µM; at D(1A) dopamine receptor, greater than 32 µM; at Histone deacetylase 2, greater than 300 µM.
Take `CCOC(=O)CCNc1cc(N2CCc3ccccc3CC2)nc(-c2cccnc2)n1`: the Activity with Macrophage [1] is 4600 a.u; with Macrophage [2], 558833 a.u; in the data set with Macrophage [3] it was 1352294 a.u; in the data set on Macrophage [4] it was 1003 a.u; in the data set with Macrophage [5], 431 a.u; in the data set with Macrophage [6] it was 45 a.u. Moreover, the Activity was 1501879 a.u in the data set with Macrophage [7]; 102 a.u in the data set with Macrophage [8]; 239 a.u in the data set on Macrophage [9]; 10100 a.u with Macrophage [10]; 22792 a.u in the data set with Macrophage [11]; 67356 a.u with Macrophage [12]. Further, the Activity in the data set on Macrophage [13] worked out at 40115 a.u; with Macrophage [14], 64 a.u; in the data set on Macrophage [15], 39565 a.u; in the data set with Macrophage [16] it was 466 a.u; in the data set on Macrophage [17], 1497395 a.u; in the data set with Macrophage [18] it was 815450 a.u. Moreover, the Activity in the data set on Macrophage [19] was 27 a.u; in the data set with Macrophage [20], 5021 a.u; in the data set with Macrophage [21] it was 253 a.u; with Macrophage [22], 784 a.u.
